Data from US10738028B2, “Spiro three-membered ring, spiro five-membered ring peptide deformylase inhibitor and use thereof in antibacteria and anti-tumor” (priority 2016, dated 2020).
Like-named read-outs stand apart in the source and are kept apart here.

Assays:
Type in all cases: cell-based
[1] = system: Moraxella catarrhalis (BCA); test: MIC, two-fold agar dilution (CLSI), clinical isolates
Procedure, shortened: (§1)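 Test samples were assayed by the CLSI-recommended two-fold agar dilution method, and the minimum inhibitory concentration against each tested strain was determined.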

[2] = system: Enterococcus faecalis (EFA); test: as above
Procedure, shortened: as §1

[3] = system: Enterococcus faecium (EFM); test: as above
Procedure, shortened: as §1

[4] = system: methicillin-resistant Staphylococcus aureus (MRSA); test: as above
Procedure, shortened: as §1

[5] = system: Escherichia coli (including ESBLs, non-ESBLs); test: as above
Procedure, shortened: as §1

[6] = system: methicillin-resistant Staphylococcus epidermidis (MRSE); test: as above
Procedure, shortened: as §1

[7] = system: Streptococcus pneoumoniae (SPN); test: as above
Procedure, shortened: as §1

[8] = system: methicillin-sensitive Staphylococcus epidermidis (MSSE); test: as above
Procedure, shortened: as §1

[9] = system: methicillin-sensitive Staphylococcus aureus (MSSA); test: as above
Procedure, shortened: as §1

[10] = system: HCT-116 colorectal cancer cell line; test: CCK-8 proliferation inhibition; conditions: Homo sapiens, HCT-116, 72 h, concentration of 30 μM, 72 hours, CCK-8
Procedure, shortened: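 Proliferation over 72 hours of compound treatment was measured with CCK-8 against a 1‰ DMSO control.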

[11] = system: A549 lung cancer cell line; test: CCK-8 proliferation inhibition; conditions: Homo sapiens, A549, 72 h, concentration of 30 μM
Procedure, shortened: (§2)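 Plating at 2000 cells/well, then incubation overnight at 37° C. Next, a range of compound concentrations for 72 hours (control 1‰ DMSO). Finally, medium decanted and CCK-8 diluted 1:10 added.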

[12] = system: BEL-7402 liver cancer cell line; test: CCK-8 proliferation inhibition; conditions: Homo sapiens, Bel-7402, 72 h, concentration of 30 μM
Procedure, shortened: as §2

[13] = system: MGC-803 gastric cancer cell line; test: CCK-8 proliferation inhibition; conditions: Homo sapiens, MGC-803, 72 h, concentration of 30 μM
Procedure, shortened: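 Using media specific to each line (1640 for MGC-803 and Jurkat, F12 for PC3, DMEM high glucose for MCF-7, each with 10% newborn bovine serum), cells at 2000/well were treated for 72 h with serially formulated compounds, then assessed with CCK-8 diluted 1:10.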

O=C(C[C@@H](CC1CCCC1)C(=O)N1CC2(CC2)C[C@H]1C(=O)Nc1ccc(N2CCOCC2)cc1)NO [Example 61]
Anti-bacterial activity (MIC), strain BCA 14-1 ([1]; clinical isolate BCA 14-1): 8 µg/mL | Anti-bacterial activity (MIC), strain BCA 14-4 ([1]; clinical isolate BCA 14-4): 8 µg/mL | Anti-bacterial activity (MIC), strain BCA 14-5 ([1]; clinical isolate BCA 14-5): 1 µg/mL | Anti-bacterial activity (MIC), strain BCA 14-6 ([1]; clinical isolate BCA 14-6): 1 µg/mL | Anti-bacterial activity (MIC), strain BCA 14-7 ([1]; clinical isolate BCA 14-7): 8 µg/mL | Anti-bacterial activity (MIC), strain BCA 14-8 ([1]; clinical isolate BCA 14-8): 8 µg/mL | Anti-bacterial activity (MIC), strain BCA 14-10 ([1]; clinical isolate BCA 14-10): 8 µg/mL | Anti-bacterial activity (MIC), strain EFA 15-1 ([2]; clinical isolate EFA 15-1): > 32 µg/mL | Anti-bacterial activity (MIC), strain EFA 15-2 ([2]; clinical isolate EFA 15-2): > 32 µg/mL | Anti-bacterial activity (MIC), strain EFA 15-3 ([2]; clinical isolate EFA 15-3): > 32 µg/mL | Anti-bacterial activity (MIC), strain EFA 15-4 ([2]; clinical isolate EFA 15-4): > 32 µg/mL | Anti-bacterial activity (MIC), strain EFA 15-5 ([2]; clinical isolate EFA 15-5): > 32 µg/mL | Anti-bacterial activity (MIC), strain EFA 15-6 ([2]; clinical isolate EFA 15-6): > 32 µg/mL | Anti-bacterial activity (MIC), strain EFA 15-9 ([2]; clinical isolate EFA 15-9): 8 µg/mL | Anti-bacterial activity (MIC), strain EFM 15-1 ([3]; clinical isolate EFM 15-1): > 32 µg/mL | Anti-bacterial activity (MIC), strain EFM 15-2 ([3]; clinical isolate EFM 15-2): > 32 µg/mL | Anti-bacterial activity (MIC), strain EFM 15-3 ([3]; clinical isolate EFM 15-3): > 32 µg/mL | Anti-bacterial activity (MIC), strain EFM 15-4 ([3]; clinical isolate EFM 15-4): > 32 µg/mL | Anti-bacterial activity (MIC), strain EFM 15-6 ([3]; clinical isolate EFM 15-6): 1 µg/mL | Anti-bacterial activity (MIC), strain MRSA 15-1 ([4]; clinical isolate MRSA 15-1): 1 µg/mL | Anti-bacterial activity (MIC), strain MRSA 15-2 ([4]; clinical isolate MRSA 15-2): 1 µg/mL | Anti-bacterial activity (MIC), strain MRSA 15-3 ([4]; clinical isolate MRSA 15-3): 1 µg/mL | Anti-bacterial activity (MIC), strain MRSA 15-4 ([4]; clinical isolate MRSA 15-4): 1 µg/mL | Anti-bacterial activity (MIC), strain ECO+ 15-1 ([5]; clinical isolate ECO+ 15-1): > 32 µg/mL | Anti-bacterial activity (MIC), strain ECO+ 15-2 ([5]; clinical isolate ECO+ 15-2): > 32 µg/mL | Anti-bacterial activity (MIC), strain ECO+ 15-3 ([5]; clinical isolate ECO+ 15-3): 1 µg/mL | Anti-bacterial activity (MIC), strain ECO+ 15-4 ([5]; clinical isolate ECO+ 15-4): 1 µg/mL | Anti-bacterial activity (MIC), strain ECO− 15-1 ([5]; clinical isolate ECO− 15-1): > 32 µg/mL | Anti-bacterial activity (MIC), strain ECO− 15-2 ([5]; clinical isolate ECO− 15-2): > 32 µg/mL | Anti-bacterial activity (MIC), strain ECO− 15-3 ([5]; clinical isolate ECO− 15-3): > 32 µg/mL | Anti-bacterial activity (MIC), strain ECO− 15-4 ([5]; clinical isolate ECO− 15-4): > 32 µg/mL | Anti-bacterial activity (MIC), strain MRSE 15-1 ([6]; clinical isolate MRSE 15-1): 1 µg/mL | Anti-bacterial activity (MIC), strain MRSE 15-2 ([6]; clinical isolate MRSE 15-2): 1 µg/mL | Anti-bacterial activity (MIC), strain MRSE 15-3 ([6]; clinical isolate MRSE 15-3): 1 µg/mL | Anti-bacterial activity (MIC), strain MRSE 15-7 ([6]; clinical isolate MRSE 15-7): 1 µg/mL | Anti-bacterial activity (MIC), strain SPN 16-2 ([7]; clinical isolate SPN 16-2): 2 µg/mL | Anti-bacterial activity (MIC), strain SPN 16-4 ([7]; clinical isolate SPN 16-4): 2 µg/mL | Anti-bacterial activity (MIC), strain MSSE 15-3 ([8]; clinical isolate MSSE 15-3): 1 µg/mL | Anti-bacterial activity (MIC), strain MSSE 15-4 ([8]; clinical isolate MSSE 15-4): 1 µg/mL | Anti-bacterial activity (MIC), strain MSSE 15-5 ([8]; clinical isolate MSSE 15-5): 1 µg/mL | Anti-bacterial activity (MIC), strain MSSE 15-6 ([8]; clinical isolate MSSE 15-6): 32 µg/mL | Anti-bacterial activity (MIC), strain MSSA 15-3 ([9]; clinical isolate MSSA 15-3): 1 µg/mL | Anti-bacterial activity (MIC), strain MSSA 15-4 ([9]; clinical isolate MSSA 15-4): 1 µg/mL | Anti-bacterial activity (MIC), strain MSSA 15-5 ([9]; clinical isolate MSSA 15-5): > 32 µg/mL | Anti-bacterial activity (MIC), strain MSSA 15-6 ([9]; clinical isolate MSSA 15-6): 1 µg/mL | inhibition at 30 µM ([10]; Table 5, read-out: Inhibition of proliferation, Colorectal cancer HCT116): ≥ 30% | inhibition at 30 µM ([10]; read-out: HCT116 inhibition rate/%): 35% | inhibition at 30 µM [11]: 10% | inhibition at 30 µM [12]: 50% | inhibition at 30 µM [13]: 31%
